Read-outs that look alike come from different tables or passages of the source. Marks after values point to notes of the source that are not given here.
Test system: SARS-CoV-2
Type: cell-based
Details: 30-minute contact time at 22 ± 2° C.; for Virus (CCID50/0.1 mL): average of 3 replicates ± standard deviation; for LRV (log reduction value): compared to the virus control

SMILES | Virus (CCID50/0.1 mL) (1 μg/mL) | LRV (log reduction value) (1 μg/mL) [log10] | Virus (CCID50/0.1 mL) (5 μg/mL) | LRV (log reduction value) (5 μg/mL) [log10] | Virus (CCID50/0.1 mL) (25 μg/mL) | LRV (log reduction value) (25 μg/mL) [log10] | Virus (CCID50/0.1 mL) (100 μg/mL) | LRV (log reduction value) (100 μg/mL) [log10] | Virus (CCID50/0.1 mL) (35%) | LRV (log reduction value) (35%) [log10]
CCCCCCCCOC(=O)CC[C@@H](C)[C@H]1CC[C@H]2[C@@H]3[C@H](OC(=O)CCN)C[C@@H]4C[C@H](OC(=O)CCN)CC[C@]4(C)[C@H]3C[C@H](OC(=O)CCN)[C@]12C [CSA-44HC1] | 4.4 ± 0.12 | 0 | 3.9 ± 0.17 | 0.5 | 0.8 ± 0.19 | 3.6 | 1.2 ± 0.94 CCID50/0.1 mL | 3.2 |  | 
CCCCCCCCCCCCNCCC[C@@H](C)[C@H]1CC[C@H]2[C@@H]3[C@H](OCCCN)C[C@@H]4C[C@H](OCCCN)CC[C@]4(C)[C@H]3C[C@H](OCCCN)[C@]12C.Cl.Cl.Cl.Cl [CSA-131HC1] | 4.1 ± 0.40 | 0.3 | 4.1 ± 0.17 | 0.3 | 1.2 ± 0.54 | 3.2 | <1.7**** CCID50/0.1 mL | >2.7 |  | 
CCO [Ethanol, reference compound] |  |  |  |  |  |  |  |  | 0.8 ± 0.23 | 3.6
